In patent US20070128217A1 (priority 2003, published 2007):

Assays:
[1] = tested on: antibodies in sera from SARS patients (sera 1a, 1b, 2, 6, 37, 62, London, SARS-yellow, SARS-green); assay type: binding, human; parameters: Binding of serum 6 to linear peptides of protein X1 of SARS-CoV Urbani / Binding of serum 37 to linear peptides of protein X1 of SARS-CoV Urbani / Binding of serum 6 to looped/cyclic peptide (PEPSCAN-ELISA) / Binding of serum 37 to looped/cyclic peptide (PEPSCAN-ELISA) / Binding of serum 37 to looped/cyclic peptides of protein X1 of SARS-CoV Urbani / Binding of serum 6 to linear peptides of protein X2 / Binding of serum 37 to linear peptides of protein X2 / Binding of serum 37 to looped/cyclic peptides of protein X2 of SARS-CoV Urbani / Binding of serum 6 to linear peptides of protein M of SARS-CoV Urbani / Binding of serum 37 to linear peptides of protein M of SARS-CoV Urbani / Binding of serum 6 to looped/cyclic peptides of protein M of SARS-CoV Urbani / Binding of serum 37 to looped/cyclic peptides of protein M of SARS-CoV Urbani / Binding of serum 6 to linear peptides of protein X3 of SARS-CoV Urbani / Binding of serum 37 to linear peptides of protein X3 of SARS-CoV Urbani / Binding of serum 37 to looped/cyclic peptides of protein X3 of SARS-CoV Urbani / Binding of serum 6 to linear peptides of protein X4 of SARS-CoV Urbani / Binding of serum 37 to linear peptides of protein X4 of SARS-CoV Urbani / Binding of serum 37 to looped/cyclic peptides of protein X4 of SARS-CoV Urbani / Binding of serum 6 to linear peptides of protein X5 of SARS-CoV Urbani / Binding of serum 37 to linear peptides of protein X5 of SARS-CoV Urbani / Binding of serum 37 to looped/cyclic peptides of protein X5 of SARS-CoV Urbani / Binding of serum 6 to linear peptides of protein N of SARS-CoV Urbani / Binding of serum 37 to linear peptides of protein N of SARS-CoV Urbani / Binding of serum 6 to linear peptide (PEPSCAN-ELISA) / Binding of serum 1a to looped/cyclic peptides of protein N of SARS-CoV Urbani / Binding of serum 1b to looped/cyclic peptides of protein N of SARS-CoV Urbani / Binding of serum 2 to looped/cyclic peptides of protein N of SARS-CoV Urbani / Binding of serum 6 to looped/cyclic peptides of protein N of SARS-CoV Urbani / Binding of serum 37 to looped/cyclic peptides of protein N of SARS-CoV Urbani / Binding of serum 62 to looped/cyclic peptides of protein N of SARS-CoV Urbani / Binding of serum London to looped/cyclic peptides of protein N of SARS-CoV Urbani / Binding of serum SARS-green to looped/cyclic peptides of protein N of SARS-CoV Urbani: unit not given here
[2] = tested on: recombinant human anti-SARS-CoV antibody 03-018; assay type: binding; parameters: Binding of antibody 03-018 to linear peptides of the N protein of SARS-CoV Urbani / Binding of antibody 03-018 to looped/cyclic peptides of the N protein of SARS-CoV Urbani: unit not given here
[3] = tested on: rabbit serum obtained by immunizing a rabbit with the SARS-CoV strain Frankfurt 1; assay type: binding; parameters: Binding of a rabbit serum to linear peptides / Binding of a rabbit serum to looped peptides / Rabbit serum linear peptides / Rabbit serum looped peptides / Binding of a rabbit serum to linear peptides of protein N of SARS-CoV Urbani (Rabbit serum linear peptides) / Binding of a rabbit serum to looped/cyclic peptides of protein N of SARS-CoV Urbani (Rabbit serum looped peptides): unit not given here
[4] = tested on: control sera (pooled serum of ten healthy LUMC hospital workers; commercial negative donor pooled serum from the Dutch bloodbank); assay type: binding, human; parameters: Binding of Control serum LUMC to linear peptides / Binding of Control serum Blood-bank to linear peptides / Binding of Control serum LUMC to looped peptides / Binding of Control Serum Blood-Bank to Looped peptides / Binding of Control serum LUMC to linear peptides of the protein M of SARS-CoV Urbani / Binding of Control serum Blood-bank to linear peptides of the protein M of SARS-CoV Urbani / Binding of Control serum LUMC to looped peptides of the protein M of SARS-CoV Urbani / Binding of Control Serum Blood-Bank to Looped peptides of the protein M of SARS-CoV Urbani: unit not given here

Row | Sequence | Binding of antibody 03-018 to linear peptides of the N protein of SARS-CoV Urbani [2] | Binding of antibody 03-018 to looped/cyclic peptides of the N protein of SARS-CoV Urbani [2] | Binding of a rabbit serum to linear peptides of protein N of SARS-CoV Urbani (Rabbit serum linear peptides) [3] | Binding of a rabbit serum to looped/cyclic peptides of protein N of SARS-CoV Urbani (Rabbit serum looped peptides) [3] | Binding of Control Serum Blood-Bank to Looped peptides [4] | Binding of Control serum Blood-bank to linear peptides [4] | Binding of Control serum LUMC to linear peptides [4] | Binding of Control serum LUMC to looped peptides [4] | also measured
1 | ELRFPRGQGVPINTN | 0.1 | 0.2 | 0.1 | 0.4 | 0.7 | 0.6 | 0.8 | 0.7 | Binding of serum 1a to linear peptides of protein N of SARS-CoV Urbani [1]: 0.2; Binding of serum 1a to looped/cyclic peptides of protein N of SARS-CoV Urbani [1]: 0.4; Binding of serum 1b to linear peptides of protein N of SARS-CoV Urbani [1]: 0.1; Binding of serum 1b to looped/cyclic peptides of protein N of SARS-CoV Urbani [1]: 0.3; Binding of serum 2 to linear peptides of protein N of SARS-CoV Urbani [1]: 0.3; Binding of serum 2 to looped/cyclic peptides of protein N of SARS-CoV Urbani [1]: 0.5; Binding of serum 6 to linear peptides of protein N of SARS-CoV Urbani [1]: 0.1; Binding of serum 6 to looped/cyclic peptides of protein N of SARS-CoV Urbani [1]: 0.3; Binding of serum 37 to linear peptides of protein N of SARS-CoV Urbani [1]: 0.7; Binding of serum 37 to looped/cyclic peptides of protein N of SARS-CoV Urbani [1]: 0.7; Binding of serum 62 to linear peptides of protein N of SARS-CoV Urbani [1]: 0.7; Binding of serum 62 to looped/cyclic peptides of protein N of SARS-CoV Urbani [1]: 0.6; Binding of serum London to linear peptides of protein N of SARS-CoV Urbani [1]: 0.5; Binding of serum London to looped/cyclic peptides of protein N of SARS-CoV Urbani [1]: 0.5; Binding of serum SARS-green to linear peptides of protein N of SARS-CoV Urbani [1]: 0.4; Binding of serum SARS-green to looped/cyclic peptides of protein N of SARS-CoV Urbani [1]: 0.7; Binding of serum SARS-yellow to linear peptides of protein N of SARS-CoV Urbani [1]: 0.6; Binding of serum SARS-yellow to looped/cyclic peptides of protein N of SARS-CoV Urbani [1]: 0.4
2 | TQGNFGDQDLIRQGT | 0.1 | 0.2 | 0.2 | 0.6 | 0.8 | 0.8 | 0.9 | 0.8 | Binding of serum 1a to linear peptide (PEPSCAN-ELISA) [1]: 0.3; Binding of serum 1a to looped/cyclic peptides of protein N of SARS-CoV Urbani [1]: 0.4; Binding of serum 1b to linear peptide (PEPSCAN-ELISA) [1]: 0.2; Binding of serum 1b to looped/cyclic peptides of protein N of SARS-CoV Urbani [1]: 0.3; Binding of serum 2 to linear peptide (PEPSCAN-ELISA) [1]: 0.2; Binding of serum 2 to looped/cyclic peptides of protein N of SARS-CoV Urbani [1]: 0.4; Binding of serum 6 to linear peptide (PEPSCAN-ELISA) [1]: 0.2; Binding of serum 6 to looped/cyclic peptides of protein N of SARS-CoV Urbani [1]: 0.2; Binding of serum 37 to linear peptide (PEPSCAN-ELISA) [1]: 0.9; Binding of serum 37 to looped/cyclic peptides of protein N of SARS-CoV Urbani [1]: 0.7; Binding of serum 62 to linear peptide (PEPSCAN-ELISA) [1]: 0.8; Binding of serum 62 to looped/cyclic peptides of protein N of SARS-CoV Urbani [1]: 0.7; Binding of serum London to linear peptide (PEPSCAN-ELISA) [1]: 0.6; Binding of serum London to looped/cyclic peptides of protein N of SARS-CoV Urbani [1]: 0.5; Binding of serum SARS-green to linear peptide (PEPSCAN-ELISA) [1]: 0.6; Binding of serum SARS-green to looped/cyclic peptides of protein N of SARS-CoV Urbani [1]: 0.5; Binding of serum SARS-yellow to linear peptide (PEPSCAN-ELISA) [1]: 0.6; Binding of serum SARS-yellow to looped/cyclic peptides of protein N of SARS-CoV Urbani [1]: 0.6
3 | QKRTATKQYNVTQAF | 0.1 | 0.2 |  |  | 0.8 | 0.8 | 0.7 | 0.8 | Recognition of the peptide by the rabbit serum [3]: recognized
4 | TLPKGFYAEGSRGGS | 0.1 | 0.2 | 0.5 | 0.3 | 0.5 | 0.7 | 1.2 | 0.5 | 
5 | LPQGTTLPKGFYAEG | 0.1 | 0.3 | 0.1 | 0.7 | 0.9 | 0.8 | 0.8 | 0.8 | 
6 | VLQLPQGTTLPKGFY | 0.1 | 0.3 | 0.2 | 0.4 | 0.7 | 0.7 | 0.6 | 0.8 | 
7 | RTATKQYNVTQAFGR | 0.1 | 0.2 |  |  | 0.8 | 0.9 | 0.8 | 0.9 | Recognition of the peptide by the rabbit serum [3]: recognized
8 | PRQKRTATKQYNVTQ | 0.1 | 0.2 |  |  | 1.0 | 1.0 | 0.9 | 0.9 | Recognition of the peptide by the rabbit serum [3]: recognized
9 | NSPARMASGGGETAL | 0.1 | 0.2 | 0.3 | 0.3 | 0.3 | 0.9 | 0.7 | 0.4 | 
10 | NNAATVLQLPQGTTL | 0.1 | 0.3 | 0.2 | 0.4 | 0.8 | 0.9 | 0.9 | 0.8 | 
11 | QLPQGTTLPKGFYAE | 0.1 | 0.2 | 0.2 | 0.4 | 0.6 | 0.9 | 0.7 | 0.6 | 
